US5807745A, “Method of inhibiting PADGEM-mediated or ELAM-1-mediated leukocyte adhesion using an inhibitor comprising a Le^x core component” (New England Medical Center Hospitals, Inc., priority 1995, dated 1998)

Key:
PADGEM = settings: literature reports; cited from earlier work
[1] = system: adherence of activated platelets to neutrophils (PADGEM-mediated); assay: Phase-contrast cell adhesion assay: thrombin-activated platelets with neutrophils; type: cell-based, human; settings: LNF isomers; direct cell adhesion assay; FIG. 6
Description: Platelets were isolated by gel filtration from fresh anticoagulated blood obtained from normal human donors (Hsu-Lin et al., J. Biol. Chem., 259: 9121-9126 (1984)). Activated platelets were prepared by incubating cells without stirring for 20 minutes at 22° C. with thrombin at a final concentration of 0.25 U/ml. Fresh platelets were used in cell adhesion assays within 30 minutes of preparation.
Neutrophils were prepared by the method of English and Anderson (J. Immunol. Method, 5: 249-252 (1974)). The neutrophil preparations were greater than 95% pure by light microscopy. Monocytes were prepared by washing the mono-nuclear leukocyte fraction twice with human serum-5 mM EDTA and incubating the cells in RPMI 1640--10% fetal calf serum in sterile […] dishes for 2 hours at 37° C. The dishes were washed three times with PBS at 37° C. to remove nonadherent cells. PBS at 0° C. was added, and the cells were incubated at 4° C. for 1 hour. Adherent cells were gently detached with a rubber policeman, washed in PBS, and resuspended in RPMI 1640--1% fetal calf serum. Lymphocytes were obtained by washing the nonadherent cells with PBS and resuspending these cells in RPMI 1640--1% fetal calf serum. The purity of these preparations was established to be greater than 90% by light microscopy using Wright esterase and nonspecific esterase stains.
Twenty microliters of platelet suspension (2×10^8 /ml) was mixed with 20 μl of cell suspension (2×10^6 /ml) and incubated for 20 minutes at 22° C. in a microfuge tube. An aliquot of the cell suspension was then in a Neubauer chamber and evaluated by light microscropy using an Olympus model BH-2 microscope. Three samples from each assay were evaluated by counting 200 cells and scoring the percentage of cells with two or more adherent platelets (Jungi et al., Blood 67: 629-636 (1986)). Antibody inhibition studies were performed by preincubating cells (20 μl; 3×10^6 /ml) with 20 μl of antibody solution for 20 minutes at 22° C. Subsequently, 20 μl of platelet suspension was added, and the mixture was incubated for 20 minutes at 22° C. Samples were analyzed as above.
To identify the PADGEM recognition site on leukocytes that mediates the binding of activated platelets, monoclonal antibodies directed at various antigens on the surface of monocytes and neutrophils were tested for their ability to inhibit the interaction of these cells with activated platelets, using the phase-contrast cell adhesion assay described in Example 2 (FIG. 1 and FIG. 2). The antibodies were raised against various leukocytes and myeloid cell lines and are directed at leukocyte antigens. […] The percentage of cells displaying two or more adherent platelets was determined as described in Example 2.

[2] = system: binding of HL60 cells to COS/PADGEM cells; assay: COS cell-PADGEM adhesion assay with labelled HL60 cells; type: cell-based, human; settings: for inhibition of binding of radiolabeled HL60 cells to COS/PADGEM cells: 111In activity, FIG. 7; for inhibition of binding of fluorescently labeled HL60 cells to COS/PADGEM cells: scored morphologically in a blind assay
Description: COS cells (1×10^5) were transfected with 40 μg of the resulting PADGEM expression vector by calcium phosphate precipitation. Coverslips (12×12 mm) were added to each culture. After 48 hours of growth in DMEM--10% fetal calf serum, the COS cells were confluent.
HL60 cells (1×10^7), maintained in culture, were washed and resuspended in 0.5 ml of serum-free RPMI 1640. The cells were labeled with 270 μCi of ^111 In oxine (Callow et al., Arch. Surg., 117: 1447-1455 (1982)) and 10 μg of bis-carboxyethyl-carboxyfluorescein (Kolber et al., J. Immunol. Meth., 108: 255-264 (1988)) by incubation at 37° C. for 30 minutes. After washing with RPMI 1640--1% bovine serum albumin, the cells (1×10^6) were incubated with the coverslips containing confluent COS cell transfectants, in the presence or absence of LNF isomers, for 20 minutes at 37° C. The coverslips were washed with RPMI 1640, and duplicate coverslips were assayed for ^111 In activity. Alternatively, samples were evaluated for HL60 cell adherence by fluorescence and phase-contrast microscopy using a Zeiss Axioscope microscope in a blind assay. Inhibition of the binding of COS/PADGEM cells to U937 cells by the antibody 80H5 was performed in experiments identical to the procedure described above.
The results of a COS cell-PADGEM adhesion assay, in which the binding of ^111 In and bis-carboxyethyl-carboxyfluorescein-lableled HL60 cells to COS/PADGEM cells was monitored by assaying ^111 In activity (Example 2), are shown in FIG. 7. […] The inhibitory effect of LNF II was more apparent when the LNF to PADGEM ratio was high. […] It is possible that minor contamination of the LNF II preparation with LNF III can account for the inhibitory activity observed.
The inhibitory effects of LNF I, II, and III on the interaction of HL60 cells and COS/PADGEM was also studied morphologically in a blind assay. In these experiments, the binding of fluorescently labeled HL60 cells to COS/PADGEM cells was scored (Example 2).

[3] = system: ELAM-mediated binding of HL60 cells to CHO-ELAM cells; assay: CHO-ELAM adhesion assay with tritiated HL60 cells; type: cell-based; settings: Homo sapiens, HL-60, done once only, read-out: decrease of ELAM-mediated binding; for inhibition at 250 µM: 0.25 mM; for inhibition at 500 µM: 0.5 mM
From the text: (§1) Chinese hamster ovary cells (CHO-DUKX) were transfected with cDNA encoding ELAM or PADGEM to make CHO-ELAM and CHO-PADGEM cells. Each of the following cell types, Chinese hamster ovary cells-DUKX (CHO-DUKX), Chinese hamster ovary cells transfected with cDNA for ELAM (CHO-ELAM) and Chinese hamster ovary cells transfected with cDNA for PADGEM (CHO-PADGEM), were separately plated at a density of 6×10^4 cells per milliliter of medium into Costar 48 well culture plates. On the following day, HL60 cells in culture were sedimented by centrifugation and resuspended in medium (RPMI, 10% fetal calf serum) to a density of 5×10^5 cells/ml. Tritiated thymidine (5 μCi per milliliter) was added to the HL60 cell suspension and the cells were grown overnight. The following day the HL60 cells were washed thrice in serum free RPMI and resuspended in a volume of 5 mls of RPMI. After assuring that the free tritium in the cell suspension is no more than 10% of the cell associated tritium, the cell count of the cell suspension was established and the cell density was adjusted to 1×10^6 cells per milliliter.
(§2) To perform the assay medium was aspirated from the CHO cells, CHO-ELAM cells and CHO-PADGEM cells. The wells containing these cells were rinsed with 1 ml of serum free RPMI. HL60 cells were preincubated for 10 minutes with the test sugar at the concentrations indicated. Aliquots of these HL60 cells (100,000 to 300,000 cells) were then added to individual wells containing CHO cells of the various types and the two cell populations incubated together for 30 minutes at room temperature. Unbound HL60 cells were removed by aspiration and the wells were washed thrice with serum free RPMI. The adherent CHO cells and any bound HL60 cells were detached from the surface of the wells with 250 μl of phosphate buffered saline containing 1 mM EDTA. An aliquot of the detached cells (200 μl) was analyzed for tritium content in a β-scintillation counter. The level of nonspecific binding of tritiated HL60 cells was taken as the level of binding seen in the wells containing the CHO-DUKX cells (parent cell line of CHO-PADGEM and CHO-ELAM transfectants). This value was subtracted from the level of tritiated HL60 cells bound in wells containing CHO-ELAM or CHO-PADGEM cells. The decrease in binding induced by the presence of the sugar was determined by comparing the level of binding of HL60 cells in the presence of the sugar to that observed in its absence.
(§3) Additional sugars were tested for inhibition of PADGEM- and ELAM-mediated interactions using the CHO-PADGEM and CHO-ELAM adhesion assay described in Example 2. The following sugars were tested at a single concentration: […]

[4] = system: PADGEM-mediated binding of HL60 cells to CHO-PADGEM transfectants; assay: CHO-PADGEM adhesion assay with tritiated HL60 cells; type: cell-based; settings: done once only
From the text: as §1, §2, §3

Molecule: heparin
- inhibition of PADGEM-mediated binding of activated platelets to leukocytes (PADGEM): inhibited

Molecule: CC(=O)N[C@H]1[C@H](O[C@H]2[C@@H](O)[C@@H](CO)O[C@@H](O[C@H]3[C@H](O)[C@@H](O)C(O)O[C@@H]3CO)[C@@H]2O)O[C@H](CO)[C@@H](O)[C@@H]1O[C@@H]1O[C@H](CO)[C@H](O)[C@H](O)[C@H]1O[C@@H]1O[C@@H](C)[C@@H](O)[C@@H](O)[C@@H]1O (some centres unmarked) [LNF I, Fucα1-2Galβ1-3GlcNAcβ1-3Galβ1-4Glc]
- inhibitory activity on adherence of activated platelets to neutrophils [1]: neither LNF I (open squares) nor LNF II (closed circles) had inhibitory activity
- inhibition of binding of radiolabeled HL60 cells to COS/PADGEM cells [2]: did not inhibit
- inhibition of binding of fluorescently labeled HL60 cells to COS/PADGEM cells [2]: no inhibitory activity

Molecule: CC(=O)N[C@H]1[C@H](O[C@H]2[C@@H](O)[C@@H](CO)O[C@@H](O[C@H]3[C@H](O)[C@@H](O)C(O)O[C@@H]3CO)[C@@H]2O)O[C@H](CO)[C@@H](O[C@@H]2O[C@@H](C)[C@@H](O)[C@@H](O)[C@@H]2O)[C@@H]1O[C@@H]1O[C@H](CO)[C@H](O)[C@H](O)[C@H]1O (some centres unmarked) [LNF II, Galβ1-3(Fucα1-4)GlcNAcβ1-3Galβ1-4Glc]
- inhibitory activity on adherence of activated platelets to neutrophils [1]: neither LNF I (open squares) nor LNF II (closed circles) had inhibitory activity
- inhibition of binding of radiolabeled HL60 cells to COS/PADGEM cells [2]: only a small inhibitory effect
- inhibition of binding of fluorescently labeled HL60 cells to COS/PADGEM cells [2]: no inhibitory activity

Molecule: CC(=O)NC1C(O)CC(OC2C(O)C(CO)OC(OC3C(CO)OC(O)C(O)C3OC3OC(C)C(O)C(O)C3O)C2O)(C(=O)O)OC1C(O)C(O)CO (centres unmarked) [3'-sialyl-3-fucosyllactose, NeuAcα2-3Galβ1-4[Fucα1-3]Glc]
- inhibition at 250 µM [3]: 50 to 60%
- inhibition of PADGEM-mediated binding of HL60 cells to CHO-PADGEM transfectants ([4]; 0.25 mM): none of the four sugars tested appreciably inhibited

Molecule: fucoidin
- inhibition of PADGEM-mediated binding of activated platelets to leukocytes (PADGEM): inhibited

Molecule: CC(=O)NC1C(O)CC(OCC2OC(OC3C(CO)OC(O)C(O)C3O)C(O)C(O)C2O)(C(=O)O)OC1C(O)C(O)CO (centres unmarked) [6'-sialyllactose, NeuAcα2-6Galβ1-4Glc]
- inhibition at 500 µM [3]: ≤ 10%
- inhibition of PADGEM-mediated binding of HL60 cells to CHO-PADGEM transfectants ([4]; 0.5 mM): none of the four sugars tested appreciably inhibited

Molecule: C[C@@H]1O[C@@H](O[C@H]2[C@H](O[C@@H]3O[C@H](CO)[C@H](O)[C@H](O)[C@H]3O)[C@@H](CO)OC(O)[C@@H]2O)[C@@H](O)[C@H](O)[C@@H]1O (some centres unmarked) [3-fucosyllactose, Galβ1-4[Fucα1-3]Glc]
- inhibition at 250 µM [3]: ≤ 10%
- inhibition of PADGEM-mediated binding of HL60 cells to CHO-PADGEM transfectants ([4]; 0.25 mM): none of the four sugars tested appreciably inhibited

Molecule: CC(=O)NC1C(O)CC(OC2C(O)C(CO)OC(OC3C(CO)OC(O)C(O)C3O)C2O)(C(=O)O)OC1C(O)C(O)CO (centres unmarked) [3'-sialyllactose, NeuAcα2-3Galβ1-4Glc]
- inhibition at 500 µM [3]: ≤ 10%
- inhibition of PADGEM-mediated binding of HL60 cells to CHO-PADGEM transfectants ([4]; 0.5 mM): none of the four sugars tested appreciably inhibited

B1: purified PADGEM: purified platelet activation dependent granule-external membrane protein (protein, UniProt P16109 42-830, looked up)
P-selectin: WTYHYSTKAYSWNISRKYCQNRYTDLVAIQNKNEIDYLNKVLPYYSSYYWIGIRKNNKTWTWVGTKKALTNEAENWADNEPNNKRNNEDCVEIYIKSPSAPGKWNDEHCLKKKHALCYTASCQDMSCSKQGECLETIGNYTCSCYPGFYGPECEYVRECGELELPQHVLMNCSHPLGNFSFNSQCSFHCTDGYQVNGPSKLECLASGIWTNKPPQCLAAQCPPLKIPERGNMTCLHSAKAFQHQSSCSFSCEEGFALVGPEVVQCTASGVWTAPAPVCKAVQCQHLEAPSEGTMDCVHPLTAFAYGSSCKFECQPGYRVRGLDMLRCIDSGHWSAPLPTCEAISCEPLESPVHGSMDCSPSLRAFQYDTNCSFRCAEGFMLRGADIVRCDNLGQWTAPAPVCQALQCQDLPVPNEARVNCSHPFGAFRYQSVCSFTCNEGLLLVGASVLQCLATGNWNSVPPECQAIPCTPLLSPQNGTMTCVQPLGSSSYKSTCQFICDEGYSLSGPERLDCTRSGRWTDSPPMCEAIKCPELFAPEQGSLDCSDTRGEFNVGSTCHFSCDNGFKLEGPNNVECTTSGRWSATPPTCKGIASLPTPGVQCPALTTPGQGTMYCRHHPGTFGFNTTCYFGCNAGFTLIGDSTLSCRPSGQWTAVTPACRAVKCSELHVNKPIAMNCSNLWGNFSYGSICSFHCLEGQLLNGSAQTACQENGHWSTTVPTCQAGPLTIQEALTYFGGAVASTIGLIMGGTLLALLRKRFRQKDDGKCPLNPHSHLGTYGVFTNAAFDPSP
- inhibition of PADGEM-mediated binding of activated platelets to leukocytes (PADGEM): inhibited
